According to ChEMBL document CHEMBL1201862, “PubChem BioAssay data set” (2004):
Activity calls are given as the source filed them.

How the values were obtained:
Vero = test: viability of Vero cells under compound – cytotoxicity control for flavivirus capping enzyme inhibitors (AID 588742); type: functional; conditions: Chlorocebus sabaeus
[1] = target: T1, Polyadenylate-binding protein 1 (Homo sapiens, UniProt P11940); test: MLLE binding blockers, Cy5 peptide tracer – biochemical, fluorescence polarization, Cy5-PAM2 peptide, secondary, miRNA deadenylation inhibitor project, dose response (AID 602260); type: functional; conditions: read-out: IC50_Mean
[2] = target: T1, Polyadenylate-binding protein 1; test: MLLE domain peptide-binding blockers, IC50 – biochemical, fluorescence polarization, FITC-PAM2 peptide, dose response (AID 602259); type: functional; conditions: read-out: IC50_Mean
[3] = fluconazole-exposed Candida albicans growth modulators – fluorescence, retest, confirmation (AID 2467); type: functional, cell-based
[4] = NIH-3T3 fibroblast cytotoxicity, dose response, cytotoxicity control, cell-based, fluorescence, Alamar Blue, secondary assay (AID 2327); type: functional;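 further: NIH-3T3 mouse fibroblasts cultured with fluconazole at 8 µg/mL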
[5] = target: T2, Serine/threonine-protein phosphatase (Candida dubliniensis (strain CD36 / CBS 7987 / NCPF 3949 / NRRLY-17841) (Yeast), UniProt B9W6M3); test: blockers of CaCl2-induced CDRE-lacZ signaling – S. cerevisiae, luminescence, secondary, dose response (AID 2388); type: functional, cell-based;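 further: yeast reporter cells carrying a calcineurin-responsive lacZ construct stimulated with calcium chloride; luminescent beta-galactosidase reporter signal in whole cells rather than isolated phosphatase activity; potency for inhibition where a drop in reporter signal means calcineurin blockade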
T2 sequence (B9W6M3 whole entry): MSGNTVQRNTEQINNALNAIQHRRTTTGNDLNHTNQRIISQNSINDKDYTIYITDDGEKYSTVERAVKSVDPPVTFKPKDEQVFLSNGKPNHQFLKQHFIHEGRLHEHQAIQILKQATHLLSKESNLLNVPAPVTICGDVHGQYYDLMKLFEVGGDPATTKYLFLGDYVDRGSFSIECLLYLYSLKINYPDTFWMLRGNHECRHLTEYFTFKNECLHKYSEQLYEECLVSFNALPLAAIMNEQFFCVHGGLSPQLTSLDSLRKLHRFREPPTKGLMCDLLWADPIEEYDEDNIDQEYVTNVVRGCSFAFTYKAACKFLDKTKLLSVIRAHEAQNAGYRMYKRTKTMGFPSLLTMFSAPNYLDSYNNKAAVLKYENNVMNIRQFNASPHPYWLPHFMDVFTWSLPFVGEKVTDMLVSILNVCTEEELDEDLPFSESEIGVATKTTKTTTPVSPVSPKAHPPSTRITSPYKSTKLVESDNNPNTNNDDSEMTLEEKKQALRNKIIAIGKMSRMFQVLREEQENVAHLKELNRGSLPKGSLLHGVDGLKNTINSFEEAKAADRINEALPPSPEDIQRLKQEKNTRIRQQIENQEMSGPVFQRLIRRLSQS

Protein Wnt-3a = Protein Wnt-3a (Mus musculus, UniProt P27467); test: antagonism of Wnt3a pathway luciferase reporter – Wnt-LIGHT cells, luminescence, selectivity assay for Gli-SUFU antagonist project, dose response (AID 651570); type: functional; conditions: read-out: IC50_Mean;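 further: Wnt-LIGHT reporter cells stimulated with conditioned medium from Wnt3a-producing cells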
[6] = target: ATP-dependent molecular chaperone HSP82 (Candida albicans (strain WO-1) (Yeast), UniProt C4YTQ8); test: steroid-induced GRE reporter decrease in yeast – S. cerevisiae, luminescence, Hsp90 inhibitor project, dose response (AID 2400); type: functional, cell-based;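 further: beta-galactosidase luminescence from glucocorticoid response element reporter as proxy for Hsp90 function; inhibitor potency where signal loss means Hsp90 inhibition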
[7] = target: T3, Rac GTPase-activating protein 1 (Homo sapiens, UniProt Q9H0H5); test: blockers of MgcRacGAP-driven Rac1 GTP hydrolysis – biochemical, ADP Hunter fluorescence, primary and confirmatory, confirmation (AID 624330); type: functional
T3 sequence (Q9H0H5 whole entry): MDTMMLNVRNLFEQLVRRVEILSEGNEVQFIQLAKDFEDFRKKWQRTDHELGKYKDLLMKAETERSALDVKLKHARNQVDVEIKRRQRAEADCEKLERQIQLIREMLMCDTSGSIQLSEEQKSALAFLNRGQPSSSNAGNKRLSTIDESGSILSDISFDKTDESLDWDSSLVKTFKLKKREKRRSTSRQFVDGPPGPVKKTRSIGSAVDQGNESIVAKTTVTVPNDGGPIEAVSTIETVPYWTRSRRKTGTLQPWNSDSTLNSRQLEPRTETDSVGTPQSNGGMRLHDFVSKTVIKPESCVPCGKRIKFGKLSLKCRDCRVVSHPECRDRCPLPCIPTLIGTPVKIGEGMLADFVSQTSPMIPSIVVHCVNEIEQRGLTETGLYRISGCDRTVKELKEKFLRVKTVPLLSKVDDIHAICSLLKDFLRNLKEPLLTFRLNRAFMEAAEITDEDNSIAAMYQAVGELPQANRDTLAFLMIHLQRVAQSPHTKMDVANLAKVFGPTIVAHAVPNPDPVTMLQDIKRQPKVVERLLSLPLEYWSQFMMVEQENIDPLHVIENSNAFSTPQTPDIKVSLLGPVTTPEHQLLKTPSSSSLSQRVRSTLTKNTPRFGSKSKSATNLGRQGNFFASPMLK

[8] = target: Dual specificity tyrosine-phosphorylation-regulated kinase 1A (Rattus norvegicus, UniProt Q63470); type: biochemical, Homo sapiens
[9] = target: T4, Microphthalmia-associated transcription factor (Homo sapiens, UniProt O75030); test: reducers of TRPM1 reporter luminescence, concentration series – cell-based, SK-MEL-5, cherry-picked, set 3, MITF inhibitor project, dose response (AID 493073); type: functional;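 further: SK-MEL-5 melanoma cells with luciferase driven by the MITF target TRPM1 promoter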
T4 sequence (O75030 whole entry): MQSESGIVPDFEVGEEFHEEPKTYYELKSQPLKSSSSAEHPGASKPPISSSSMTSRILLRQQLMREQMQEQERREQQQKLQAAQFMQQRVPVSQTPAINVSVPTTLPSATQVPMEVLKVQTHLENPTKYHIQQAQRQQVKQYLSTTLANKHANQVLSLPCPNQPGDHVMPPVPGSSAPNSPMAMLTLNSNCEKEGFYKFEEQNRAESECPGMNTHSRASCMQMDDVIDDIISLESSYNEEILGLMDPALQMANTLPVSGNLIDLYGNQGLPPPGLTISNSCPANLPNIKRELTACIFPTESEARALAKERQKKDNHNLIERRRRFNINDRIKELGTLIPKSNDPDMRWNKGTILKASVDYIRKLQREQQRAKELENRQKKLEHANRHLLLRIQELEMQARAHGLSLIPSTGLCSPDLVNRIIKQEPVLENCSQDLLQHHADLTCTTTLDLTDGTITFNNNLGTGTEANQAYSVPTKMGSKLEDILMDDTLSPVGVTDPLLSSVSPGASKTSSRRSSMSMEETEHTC

[10] = reduction of Shn3 3'UTR-driven luciferase in osteoblasts – cell-based, Clone20 osteoblasts, firefly luciferase, cherry-picked, dose response (AID 624132); type: functional;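 further: firefly luciferase luminescence from reporter carrying the Shn3 3'UTR in osteoblasts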
[11] = NIH3T3 cell viability loss – ATP luminescence, mouse fibroblasts, counter-screen, dose response (AID 2010); type: functional, cell-based;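 further: cells exposed to compound for about 90 hours before reading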
[12] = loss of viability in HepG2 cells – cell-based, CellTiter-Glo, cherry-picked, cytotoxicity control for Shn3 inhibitor project, dose response (AID 624134); type: functional
[13] = Luminescence Cell-Based Dose Retest to Confirm Inhibitors of Cancer Stem Cells. [Related pubchem assays (depositor defined):AID2717, AID2721]; type: functional; conditions: Homo sapiens
INS1 = test: INS-1E survival protection against cytokine death – cell-based, luminescence, retest, dose response (AID 449756); type: functional; conditions: Rattus norvegicus;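 further: cell death triggered by IL-1 beta plus TNF-alpha plus IFN-gamma mixture; protective hits raise ATP signal compared with cytokine alone wells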
[14] = non-specific 3'UTR reporter inhibition in Clone20-Shn3RL – cell-based, Renilla luciferase, cherry-picked, counter-screen for Shn3 inhibitor project, dose response (AID 624133); type: functional
A-375 = test: MITF: Counter assay: A375 proliferation Measured in Cell-Based System Using Plate Reader - 2084-03_Inhibitor_Dose_DryPowder_Activity. [Related pubchem assays (depositor defined):AID488944]; type: functional; conditions: Homo sapiens
[15] = Trypanosoma cruzi growth suppression in host cells – NIH3T3 host cells, beta-gal luminescence, confirmation (AID 2044); type: functional, cell-based;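 further: intracellular parasites grown in NIH/3T3 mouse fibroblasts as host cells; luminescent beta-galactosidase reporter signal from transgenic T. cruzi replicating inside host cells; inhibitors lower the luminescence signal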
Hexokinase-1 = target: T5, Hexokinase-1 (Homo sapiens, UniProt P19367); test: SAR analysis of small molecule inhibitors of hexokinase domain containing I (HKDC1) in the hexokinase 1 selectivity assay. [Related pubchem assays (depositor defined):AID493160, AID493190]; type: functional
T5 sequence (P19367 whole entry): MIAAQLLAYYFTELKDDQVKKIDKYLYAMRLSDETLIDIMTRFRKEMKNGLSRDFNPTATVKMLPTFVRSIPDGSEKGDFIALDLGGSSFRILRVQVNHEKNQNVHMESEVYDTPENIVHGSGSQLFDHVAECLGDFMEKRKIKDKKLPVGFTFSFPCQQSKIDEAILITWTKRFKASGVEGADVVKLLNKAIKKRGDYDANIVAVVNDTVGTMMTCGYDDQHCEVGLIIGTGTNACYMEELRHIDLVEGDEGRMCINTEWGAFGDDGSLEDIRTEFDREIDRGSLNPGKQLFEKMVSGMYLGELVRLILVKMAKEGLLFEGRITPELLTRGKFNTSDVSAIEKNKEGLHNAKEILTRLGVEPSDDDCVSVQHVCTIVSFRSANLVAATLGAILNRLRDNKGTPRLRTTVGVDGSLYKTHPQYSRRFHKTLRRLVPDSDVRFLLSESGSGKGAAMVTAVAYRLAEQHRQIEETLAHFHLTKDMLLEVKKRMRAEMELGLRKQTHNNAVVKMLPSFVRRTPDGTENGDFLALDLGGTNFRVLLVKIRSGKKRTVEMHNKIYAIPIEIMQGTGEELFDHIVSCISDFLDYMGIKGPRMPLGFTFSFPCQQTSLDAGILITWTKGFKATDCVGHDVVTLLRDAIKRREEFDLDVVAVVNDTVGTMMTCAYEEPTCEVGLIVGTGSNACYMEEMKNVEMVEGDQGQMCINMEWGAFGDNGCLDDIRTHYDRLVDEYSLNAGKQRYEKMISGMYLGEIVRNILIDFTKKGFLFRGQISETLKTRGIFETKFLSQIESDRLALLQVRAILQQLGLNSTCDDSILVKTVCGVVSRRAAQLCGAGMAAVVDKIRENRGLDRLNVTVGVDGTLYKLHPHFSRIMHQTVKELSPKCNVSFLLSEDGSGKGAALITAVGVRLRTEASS

Hexokinase HKDC1 = target: T6, Hexokinase HKDC1 (Homo sapiens, UniProt Q2TB90); test: SAR analysis of small molecule inhibitors of hexokinase domain containing I (HKDC1). [Related pubchem assays (depositor defined):AID493160, AID493190]; type: functional
T6 sequence (Q2TB90 whole entry): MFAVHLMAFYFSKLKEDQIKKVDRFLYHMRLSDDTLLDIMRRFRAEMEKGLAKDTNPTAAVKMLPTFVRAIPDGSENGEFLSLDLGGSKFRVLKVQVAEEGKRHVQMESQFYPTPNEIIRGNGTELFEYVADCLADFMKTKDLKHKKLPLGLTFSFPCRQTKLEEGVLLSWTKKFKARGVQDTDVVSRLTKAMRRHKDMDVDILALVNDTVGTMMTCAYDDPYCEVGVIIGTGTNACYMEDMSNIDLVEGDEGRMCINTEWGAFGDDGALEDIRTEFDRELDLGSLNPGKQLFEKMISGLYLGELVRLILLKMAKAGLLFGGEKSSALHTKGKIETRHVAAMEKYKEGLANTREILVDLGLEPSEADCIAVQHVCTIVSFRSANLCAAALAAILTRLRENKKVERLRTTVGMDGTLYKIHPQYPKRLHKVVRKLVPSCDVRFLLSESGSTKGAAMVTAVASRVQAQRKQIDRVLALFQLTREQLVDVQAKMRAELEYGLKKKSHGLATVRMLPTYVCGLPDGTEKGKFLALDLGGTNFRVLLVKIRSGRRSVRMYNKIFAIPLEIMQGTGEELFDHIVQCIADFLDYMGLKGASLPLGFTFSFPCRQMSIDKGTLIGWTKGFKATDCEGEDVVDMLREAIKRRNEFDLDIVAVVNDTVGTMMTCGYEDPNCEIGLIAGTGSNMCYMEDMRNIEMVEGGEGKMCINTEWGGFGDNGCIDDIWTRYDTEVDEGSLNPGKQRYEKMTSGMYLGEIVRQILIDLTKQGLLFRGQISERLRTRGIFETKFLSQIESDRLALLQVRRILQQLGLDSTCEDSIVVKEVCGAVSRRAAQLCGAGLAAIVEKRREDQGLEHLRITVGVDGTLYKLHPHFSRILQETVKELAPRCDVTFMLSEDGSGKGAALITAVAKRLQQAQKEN

Large T antigen = Large T antigen (Simian virus 40, UniProt P03070); type: functional, Betapolyomavirus macacae;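 further: Confirmatory-stage PubChem screen for compounds that inhibit SV40 T antigen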
Sequence of Large T antigen (P03070 whole entry): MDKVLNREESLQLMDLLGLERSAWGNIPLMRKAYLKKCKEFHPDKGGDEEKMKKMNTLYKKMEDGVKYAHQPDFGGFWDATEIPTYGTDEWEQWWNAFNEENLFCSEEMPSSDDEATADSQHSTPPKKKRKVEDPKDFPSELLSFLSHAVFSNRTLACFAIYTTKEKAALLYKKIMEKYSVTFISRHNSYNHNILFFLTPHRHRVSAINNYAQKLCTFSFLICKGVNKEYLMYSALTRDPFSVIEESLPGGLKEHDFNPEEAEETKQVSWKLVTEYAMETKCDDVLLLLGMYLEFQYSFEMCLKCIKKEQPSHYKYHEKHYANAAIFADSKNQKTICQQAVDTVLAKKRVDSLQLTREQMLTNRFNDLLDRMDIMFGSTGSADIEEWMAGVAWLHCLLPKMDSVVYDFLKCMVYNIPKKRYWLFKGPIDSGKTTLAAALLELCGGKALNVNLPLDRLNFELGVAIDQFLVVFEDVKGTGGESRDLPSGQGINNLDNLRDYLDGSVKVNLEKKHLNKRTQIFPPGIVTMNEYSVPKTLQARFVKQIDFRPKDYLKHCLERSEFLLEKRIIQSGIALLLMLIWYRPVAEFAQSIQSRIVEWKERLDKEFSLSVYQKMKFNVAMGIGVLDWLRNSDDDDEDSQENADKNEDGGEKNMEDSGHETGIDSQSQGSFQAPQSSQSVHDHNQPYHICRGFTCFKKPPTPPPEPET

T1 sequence (P11940 whole entry, the tested form may be a part): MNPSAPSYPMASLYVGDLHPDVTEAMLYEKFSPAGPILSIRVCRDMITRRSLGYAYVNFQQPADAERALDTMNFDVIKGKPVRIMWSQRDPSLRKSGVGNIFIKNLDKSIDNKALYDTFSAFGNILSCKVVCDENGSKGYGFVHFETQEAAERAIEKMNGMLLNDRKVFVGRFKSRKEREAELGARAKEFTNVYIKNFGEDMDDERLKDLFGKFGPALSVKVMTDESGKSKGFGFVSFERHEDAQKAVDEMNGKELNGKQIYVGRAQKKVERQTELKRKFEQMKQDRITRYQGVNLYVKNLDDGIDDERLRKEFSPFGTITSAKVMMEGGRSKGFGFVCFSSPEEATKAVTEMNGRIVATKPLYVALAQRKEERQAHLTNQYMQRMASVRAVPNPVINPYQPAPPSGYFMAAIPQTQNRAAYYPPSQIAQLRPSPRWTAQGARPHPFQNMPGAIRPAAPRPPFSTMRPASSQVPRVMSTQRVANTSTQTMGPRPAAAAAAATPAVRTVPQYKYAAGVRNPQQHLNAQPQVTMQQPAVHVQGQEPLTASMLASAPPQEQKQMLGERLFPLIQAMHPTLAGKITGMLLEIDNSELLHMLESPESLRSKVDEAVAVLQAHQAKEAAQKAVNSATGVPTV
Sequence of Protein Wnt-3a (P27467 whole entry): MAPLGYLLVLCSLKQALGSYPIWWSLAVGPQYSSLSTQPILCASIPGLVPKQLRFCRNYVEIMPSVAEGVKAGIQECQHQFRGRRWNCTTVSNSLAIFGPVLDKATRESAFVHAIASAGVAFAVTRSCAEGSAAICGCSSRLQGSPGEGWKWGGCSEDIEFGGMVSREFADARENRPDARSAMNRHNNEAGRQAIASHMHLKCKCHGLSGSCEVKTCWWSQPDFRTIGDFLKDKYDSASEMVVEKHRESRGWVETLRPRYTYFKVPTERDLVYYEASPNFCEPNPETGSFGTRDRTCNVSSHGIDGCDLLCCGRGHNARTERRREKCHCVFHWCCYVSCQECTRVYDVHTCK
Sequence of ATP-dependent molecular chaperone HSP82 (C4YTQ8 whole entry): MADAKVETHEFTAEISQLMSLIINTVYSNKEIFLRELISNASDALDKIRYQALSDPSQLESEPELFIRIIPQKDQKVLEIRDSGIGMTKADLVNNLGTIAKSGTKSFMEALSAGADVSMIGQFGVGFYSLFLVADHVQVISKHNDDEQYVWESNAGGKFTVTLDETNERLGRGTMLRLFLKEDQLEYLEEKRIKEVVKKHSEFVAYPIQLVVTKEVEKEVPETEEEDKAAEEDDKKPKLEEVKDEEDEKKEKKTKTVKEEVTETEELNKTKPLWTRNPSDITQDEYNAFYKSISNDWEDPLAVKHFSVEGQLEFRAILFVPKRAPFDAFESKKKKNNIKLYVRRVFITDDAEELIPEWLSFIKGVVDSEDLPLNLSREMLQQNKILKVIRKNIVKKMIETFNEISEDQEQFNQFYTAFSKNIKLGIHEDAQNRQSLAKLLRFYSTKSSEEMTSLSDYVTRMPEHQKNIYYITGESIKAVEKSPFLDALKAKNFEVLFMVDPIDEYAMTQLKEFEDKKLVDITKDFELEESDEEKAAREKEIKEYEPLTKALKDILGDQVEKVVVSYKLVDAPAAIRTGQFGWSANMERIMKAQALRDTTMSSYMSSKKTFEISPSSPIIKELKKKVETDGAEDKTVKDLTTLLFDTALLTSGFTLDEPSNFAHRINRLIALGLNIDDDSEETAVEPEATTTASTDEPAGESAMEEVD

COC/C=C/C1=CC2=CC(=O)C(C)(OC(=O)c3cnc4ccccc4n3)C(=O)C2=CN1Cc1ccc(OC)cc1 (configuration not stated)
CC50 (Vero): 39.2 µM (active)

O=C(Nc1cccs1)Nc1c(F)c(F)c(F)c(F)c1F
IC50 [1]: > 66 µM (inactive)
IC50 [2]: > 66 µM (inactive)

CCc1ccccc1N=C(S)N=Nc1c(O)n(C)c2ccc(S(=O)(=O)N3CCOCC3)cc12
EC50 [3]: > 38 µM (not active)
EC50 [4]: > 150 µM (inconclusive)
EC50 [5]: > 180 µM (inactive)
IC50 (Protein Wnt-3a): 13.3 µM (active)
EC50 [6]: 40.9 µM (active)

Nc1cc2c([N+](=O)[O-])cccc2o1
IC50 [7]: 128 µM (active)
AC50 [8]: 16.6 µM (active)

O=S(=O)(c1ccc(Cl)cc1)N1CCN(Cc2ccc(O)c3ncccc23)CC1
AC50 [9]: 4.37 µM (active)
AC50 [10]: 3.01 µM (active)
EC50 [11]: > 30 µM (not active)
EC50 [3]: 2.53 µM (active)
AC50 [12]: 43.9 µM (active)
EC50 [4]: 16.6 µM (active)
AC50 [13]: 5.13 µM (active)
AC50 (INS1): 2.42 µM (active)
AC50 [14]: 16.4 µM (active)
AC50 (A-375): 40.6 µM (active)
EC50 [15]: 1.37 µM (active)

O=C(Nc1cccc(C(=O)Nc2cccc(C(F)(F)F)c2)c1)c1ccncc1
IC50 (Hexokinase-1): > 80 µM (inactive)
IC50 (Hexokinase HKDC1): > 80 µM (inactive)

COc1ccccc1/C=C/c1nc2ccccc2c(=O)n1Cc1ccccc1
IC50 (Hexokinase-1): > 80 µM (inactive)
IC50 (Hexokinase HKDC1): > 80 µM (inactive)

O=C(Nc1nnc(SCc2ccc(Cl)cc2)s1)c1ccc2ncsc2c1
IC50 (Hexokinase-1): > 80 µM (inactive)
IC50 (Hexokinase HKDC1): > 80 µM (inactive)

Cc1ccc(NC(=O)CSC(N)=O)cc1Cl
IC50 [1]: > 66 µM (inactive)
IC50 [2]: > 66 µM (inactive)

O=C(O)/C=C/c1ccc(O)cc1 [COUMARIC ACID]
IC50 (Large T antigen): 18.9 µM (active)
AC50 [8]: 10.9 µM (active)

O=c1cc(-c2ccc(O)c(O)c2)oc2cc(O[C@@H]3O[C@H](CO)[C@@H](O)[C@H](O)[C@H]3O)cc(O)c12 [GALUTEOLIN]
AC50 [8]: 12.7 µM (active)
